Data on 30 molecules can be found in ChEMBL document CHEMBL3301361, “Experimental in vitro DMPK and physicochemical data on a set of publicly disclosed compounds”.

Where only a bound is given, the exact number is not on record here.

The nature of series [1]: in vitro. The note with it: hepatocytes.
The nature of series [2]: in vitro. The note with it: human.
Series [3] is described as follows: physchem. Particulars: octan-1-ol/water, pH 7.4, LogD7.4.
A short description of series [4]: in vitro. The note with it: human, plasma, PPB.

In series [1], `CCOC(=O)c1cnc2c(N)cccc2c1O` gave an intrinsic metabolic clearance (hepatocyte CLint) of more than 150 µL/min/1e6 cells. For the same molecule, the intrinsic metabolic clearance (microsomal CLint) in series [2] (liver microsomes) was 20.4 µL/min/mg. The logD in series [3] was found to be 0.9. In series [4], this molecule gave a fraction unbound at 5 h of 0.201.

Consider `CCOc1ccc(-n2c([C@@H](C)N(CC3CCN(C)CC3)C(=O)Cc3ccc(F)c(C(F)(F)F)c3)nc3ncccc3c2=O)cc1`, for which the hepatocyte CLint in series [1] worked out at 19.9 µL/min/1e6 cells. Also, in series [2] (liver microsomes), the microsomal CLint was 21.4 µL/min/mg. This molecule came in with a pH-dependent lipophilicity (logD) in series [3] of 1.4. In series [4], the fraction unbound at 5 h is 0.129.

For the molecule `CCN(CC)CCNc1ncnc2c1sc1nc(N3CCOCC3)c3c(c12)CCCC3`, the hepatocyte CLint in series [1] amounted to 26.3 µL/min/1e6 cells. The same molecule showed a microsomal CLint in series [2] (liver microsomes) of 9.55 µL/min/mg. The same molecule yielded a log distribution coefficient (logD) in series [3] of 3.3. This molecule had a fraction unbound at 5 h in series [4] of 0.0784.

As for `Cc1cc(CCCOc2c(Cl)cc(C3=NCCO3)cc2Cl)on1`, the hepatocyte CLint in series [1] was more than 150 µL/min/1e6 cells. The microsomal CLint in series [2] (microsomes) is 66.1 µL/min/mg. In series [3], this molecule yielded a logD of 3.72. The molecule further had a fraction unbound at 5 h in series [4] of 0.0034.

Consider `O=C(CSc1ccccc1)N1CCN(C(=O)c2ccco2)CC1`, for which the intrinsic clearance (hepatocyte CLint) in series [1] came to 64.6 µL/min/1e6 cells. In series [2] (liver microsomes), this molecule came in with an intrinsic metabolic clearance (microsomal CLint) of 12.3 µL/min/mg. This molecule also had a logD in series [3] of 1.6. The molecule also had a free fraction (fraction unbound) at 5 h in series [4] of 0.266.

In turn, `O=S1(=O)CC(O)C(N2CCC(c3ccccc3)CC2)C1` (stereo not given) displayed a hepatocyte CLint in series [1] of 75.9 µL/min/1e6 cells. In series [2] (microsomes), the microsomal CLint stood at 5.25 µL/min/mg. The logD in series [3] was determined as 1.4. Further, the fraction unbound at 5 h in series [4] was 0.569.

Molecule `Cc1cc(C)nc(SCC(N)=O)n1` yielded a hepatocyte CLint in series [1] of less than 3 µL/min/1e6 cells. This molecule also gave an intrinsic metabolic clearance (microsomal CLint) in series [2] (liver microsomes) of less than 3 µL/min/mg. Further, the pH-dependent lipophilicity (logD) in series [3] amounted to 0.23. In addition, the unbound share (fraction unbound) at 5 h in series [4] is 0.788.

As to `CC(=O)c1cc2ccc(O)cc2oc1=O`, the hepatocyte CLint in series [1] was more than 150 µL/min/1e6 cells. The microsomal CLint in series [2] (microsomes) is 28.2 µL/min/mg. Also, the logD in series [3] amounted to 0.87. Also, in series [4], the free fraction (fraction unbound) at 5 h was 0.0149.

In series [1], `Cc1oc(-c2ccccc2)cc1C(=O)Nc1cccc(C(=O)O)c1` came in with a hepatocyte CLint of 66.1 µL/min/1e6 cells. For the same molecule, the intrinsic clearance (microsomal CLint) in series [2] (liver microsomes) came to 4.17 µL/min/mg. In series [3], the pH-dependent lipophilicity (logD) was 1.63. Moreover, the fraction unbound at 5 h in series [4] was 0.002.

Turning to `COc1ccc(NC(=O)CCc2c(C)nc3nc(C)nn3c2C)cc1`, the hepatocyte CLint in series [1] came out at 3.09 µL/min/1e6 cells. For the same molecule, the microsomal CLint in series [2] (microsomes) came to 3.98 µL/min/mg. This molecule also gave a logD in series [3] of 1.4. The same molecule had a free fraction (fraction unbound) at 5 h in series [4] of 0.176.

`C[C@H](NC(=O)c1cccc2c1N(Cc1ccc(Cl)cc1)CC2)c1ccc(C(=O)O)cc1` registered an intrinsic metabolic clearance (hepatocyte CLint) in series [1] of 13.2 µL/min/1e6 cells. Further, in series [2] (liver microsomes), the microsomal CLint worked out at 15.8 µL/min/mg. This molecule registered a log distribution coefficient (logD) in series [3] of 1.47. Also, in series [4], the free fraction (fraction unbound) at 5 h is 0.0133.

Regarding `Cc1ccc(S(=O)(=O)N2N=Cc3ccccc3B2O)cc1`, in series [1], the hepatocyte CLint came out at 6.17 µL/min/1e6 cells. In series [2] (liver microsomes), the intrinsic metabolic clearance (microsomal CLint) worked out at 14.1 µL/min/mg. The molecule also came in with a pH-dependent lipophilicity (logD) in series [3] of 0.05. In series [4], the free fraction (fraction unbound) at 5 h was 0.0836.

Take `CCCS(=O)(=O)N1N=Cc2cc(Cl)ccc2B1O`: in series [1], the intrinsic clearance (hepatocyte CLint) was less than 3 µL/min/1e6 cells. The molecule further yielded a microsomal CLint in series [2] (liver microsomes) of 9.77 µL/min/mg. This molecule also returned a pH-dependent lipophilicity (logD) in series [3] of -0.4. Also, in series [4], the fraction unbound at 5 h is 0.17.

Take `COc1ccc2nc(C)cc(N3CC(CNC(=O)C4CC4)OC3=O)c2c1` (stereo not given): in series [1], the hepatocyte CLint stood at 19.5 µL/min/1e6 cells. This molecule gave a microsomal CLint in series [2] (microsomes) of 8.91 µL/min/mg. In series [3], this molecule registered a logD of 1.55. In series [4], this molecule had a fraction unbound at 5 h of 0.324.

For the molecule `C[C@@H](C(=O)NCCN1CCCC1)c1ccc(OS(=O)(=O)C(F)(F)F)cc1`, in series [1], the intrinsic metabolic clearance (hepatocyte CLint) stood at 6 µL/min/1e6 cells. In series [2] (liver microsomes), this molecule displayed a microsomal CLint of less than 3 µL/min/mg. For the same molecule, the pH-dependent lipophilicity (logD) in series [3] was determined as 1.64. In series [4], the fraction unbound at 5 h is 0.324.

On to `Cc1ccc(S(=O)(=O)Nc2c(C(=O)N[C@@H](C)C(C)(C)C)c(C)nn2C2CCN(CC(F)(F)F)CC2)cc1`, for which the hepatocyte CLint in series [1] is less than 3 µL/min/1e6 cells. Besides, the intrinsic clearance (microsomal CLint) in series [2] (microsomes) is less than 3 µL/min/mg. The same molecule had a logD in series [3] of 1.08. In series [4], this molecule gave a free fraction (fraction unbound) at 5 h of 0.117.

`CCCNC(=O)CSc1ccc(S(=O)(=O)N2CCCC2)cn1`: in series [1], the intrinsic metabolic clearance (hepatocyte CLint) came to 55 µL/min/1e6 cells. In series [2] (microsomes), the microsomal CLint came out at 12.6 µL/min/mg. In series [3], the logD is 1.55. The same molecule showed a fraction unbound at 5 h in series [4] of 0.349.

Turning to `O=C(Nc1cc(-c2ccncc2)c[nH]c1=O)[C@H](Cc1ccccc1)NC1(c2ccccn2)CC1`, the hepatocyte CLint in series [1] is more than 150 µL/min/1e6 cells. In addition, the microsomal CLint in series [2] (liver microsomes) worked out at 19.1 µL/min/mg. This molecule had a logD in series [3] of 3.44. This molecule gave a fraction unbound at 5 h in series [4] of 0.0287.

Consider `Nc1ncnc2c1ncn2[C@@H]1O[C@H](CSCCCNC(=O)NCc2ccccc2)[C@@H](O)[C@H]1O`, for which the intrinsic clearance (hepatocyte CLint) in series [1] came to 14.4 µL/min/1e6 cells. Further, the intrinsic clearance (microsomal CLint) in series [2] (microsomes) came out at 21.4 µL/min/mg. The same molecule yielded a logD in series [3] of 0.9. The fraction unbound at 5 h in series [4] was 0.154.

On to `COc1cc(O)c(C(CC(=O)N2CC(C)CC(C)C2)c2ccc3c(c2)OCO3)c(OC)c1` (stereo not given), for which the intrinsic metabolic clearance (hepatocyte CLint) in series [1] is more than 150 µL/min/1e6 cells. This molecule came in with an intrinsic metabolic clearance (microsomal CLint) in series [2] (microsomes) of more than 150 µL/min/mg. The pH-dependent lipophilicity (logD) in series [3] was determined as 4.3. In series [4], this molecule had a fraction unbound at 5 h of 0.0024.

For `CC(=O)Nc1nc(CCc2ccc(NC(=N)N)cc2)cs1`, the hepatocyte CLint in series [1] is 12.9 µL/min/1e6 cells. The same molecule displayed a microsomal CLint in series [2] (liver microsomes) of 3.98 µL/min/mg. Besides, in series [3], the logD is -0.82. Further, the fraction unbound at 5 h in series [4] is 0.465.

`C[C@@H](NC(=O)C1CCNCC1)c1ccc(Nc2ncc3cc(-c4ccncc4)ccc3n2)cc1` came in with a hepatocyte CLint in series [1] of less than 3 µL/min/1e6 cells. The molecule also displayed a microsomal CLint in series [2] (liver microsomes) of 4.17 µL/min/mg. Also, the logD in series [3] stood at 0.4. Further, the fraction unbound at 5 h in series [4] was 0.0477.

Consider `Clc1ccc2ncc(-c3cccc(NC4CNC4)n3)n2c1`, for which the intrinsic clearance (hepatocyte CLint) in series [1] is 19.1 µL/min/1e6 cells. Moreover, in series [2] (liver microsomes), the microsomal CLint was less than 3 µL/min/mg. In series [3], this molecule showed a log distribution coefficient (logD) of 1.19. In addition, the fraction unbound at 5 h in series [4] is 0.163.

`Clc1cccc(-c2cnc3ccc(NC4CCOCC4)nn23)c1` gave an intrinsic metabolic clearance (hepatocyte CLint) in series [1] of 14.8 µL/min/1e6 cells. The microsomal CLint in series [2] (liver microsomes) is 9.12 µL/min/mg. Moreover, the logD in series [3] is 4.3. This molecule gave an unbound share (fraction unbound) at 5 h in series [4] of 0.009.

As for `O=C(O)c1cncc(-c2ccc(Cl)c(C(=O)NCC34CC5CC(CC(C5)C3)C4)c2)c1`, the intrinsic metabolic clearance (hepatocyte CLint) in series [1] was found to be 7 µL/min/1e6 cells. Also, in series [2] (microsomes), the microsomal CLint stood at 66 µL/min/mg. For the same molecule, in series [3], the logD was determined as 0.85. Besides, the fraction unbound at 5 h in series [4] amounted to 0.0099.

As to `CC1N=C(N)N=C(N)N1c1ccc(Cl)cc1` (stereo not given), the hepatocyte CLint in series [1] was less than 3 µL/min/1e6 cells. Further, the intrinsic metabolic clearance (microsomal CLint) in series [2] (liver microsomes) was 3.31 µL/min/mg. For the same molecule, the logD in series [3] is -0.8. The molecule further had a free fraction (fraction unbound) at 5 h in series [4] of 0.747.

For the molecule `COC(=O)[C@H](c1ccccc1Cl)N1CCc2sccc2C1` [CLOPIDOGREL], in series [1], the hepatocyte CLint is 137 µL/min/1e6 cells. In series [2] (microsomes), this molecule came in with an intrinsic metabolic clearance (microsomal CLint) of more than 150 µL/min/mg. The molecule further gave a logD in series [3] of 3.69. This molecule gave a fraction unbound at 5 h in series [4] of 0.0136.

Regarding `CS(=O)(=O)c1ccc(-c2cnc(N)c(-c3ccc(C(F)(F)F)nc3)c2)cc1` [MMV-048], in series [1], the hepatocyte CLint was determined as 4.79 µL/min/1e6 cells. Further, the microsomal CLint in series [2] (liver microsomes) worked out at 6.17 µL/min/mg. Moreover, the logD in series [3] stood at 2.4. In series [4], this molecule had a free fraction (fraction unbound) at 5 h of 0.194.

Regarding `CCOc1ccc(NC(C)=O)cc1` [PHENACETIN], the intrinsic metabolic clearance (hepatocyte CLint) in series [1] came to 26.9 µL/min/1e6 cells. In series [2] (liver microsomes), the intrinsic clearance (microsomal CLint) is 24.6 µL/min/mg. Besides, the pH-dependent lipophilicity (logD) in series [3] came to 1.5. The molecule further showed a fraction unbound at 5 h in series [4] of 0.651.

`NC(=O)c1ccc(N(C(N)=O)c2c(F)cccc2F)nc1-c1ccc(F)cc1F` [VX-702] displayed an intrinsic metabolic clearance (hepatocyte CLint) in series [1] of less than 3 µL/min/1e6 cells. Moreover, the intrinsic metabolic clearance (microsomal CLint) in series [2] (liver microsomes) is 5.13 µL/min/mg. Moreover, the logD in series [3] stood at 1.6. Further, the fraction unbound at 5 h in series [4] was 0.392.
